Here are results for 24 compounds from US20050124660A1, “Novel medical uses of compounds showing CB1-antagonistic activity and combination treatment involving said compounds” (priority 2003, published 2005).

pIC50, pKi: −log10 of the molar value. Like-named read-outs stand apart in the source and are kept apart here.

As usually defined, the melting point is the temperature, or range, at which the solid turns liquid. By pIC50 is commonly meant −log10 of the IC50, conventionally taken in molar units. The Kb is the equilibrium dissociation constant of an antagonist, usually derived from a functional assay. A high value points to a less potent antagonist. Usually pKi stands for the negative decadic logarithm of the Ki, by convention in mol/L.

For data set [1], the system named is bacterial and fungal lipases. As to conditions: cited from earlier work.
The subject of a further data set is plasma lipases. As to conditions: cited from earlier work; for pIC50: read-out: IC50 for inhibition of plasma lipases.
For data set [2], the target named is T1, porcine pancreatic lipase (Sus scrofa, UniProt P00591).
T1 sequence (P00591 1-450): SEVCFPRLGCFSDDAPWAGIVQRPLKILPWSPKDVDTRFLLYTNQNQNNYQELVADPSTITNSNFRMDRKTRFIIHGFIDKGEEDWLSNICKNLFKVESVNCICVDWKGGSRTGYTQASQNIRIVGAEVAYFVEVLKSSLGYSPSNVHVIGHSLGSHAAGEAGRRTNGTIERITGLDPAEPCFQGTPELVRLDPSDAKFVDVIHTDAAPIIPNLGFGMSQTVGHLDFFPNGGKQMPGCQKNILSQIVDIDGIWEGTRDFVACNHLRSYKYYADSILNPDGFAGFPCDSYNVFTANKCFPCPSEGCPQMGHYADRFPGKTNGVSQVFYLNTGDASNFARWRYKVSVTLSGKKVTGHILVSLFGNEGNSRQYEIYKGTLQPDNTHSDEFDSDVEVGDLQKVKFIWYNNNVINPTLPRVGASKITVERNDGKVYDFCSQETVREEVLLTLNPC
The conditions noted are these: cited from earlier work; for inhibitory activity, fold stronger than that of THL: porcine pancreatic lipase, relative to THL; for pIC50: read-out: IC50 for inhibition of hydrolysis of triolein by porcine pancreatic lipase.

For data set [3] the following is noted: 120 mg tid, 5 days; placebo 1.4 g/day; cited from earlier work.
Data set [4] deals with T2, human cannabinoid CB1 receptors (Homo sapiens, UniProt P21554).
T2 construct: expressed in transfected cells
As to the kind of experiment: In vitro CB1 antagonism, functional studies in CHO cells expressing human CB1 receptor. The format is cell-based. How it is done:
The cannabinoid CB1 antagonistic activity of compounds of the formulas (I), (II), III), (IV) or (V) is also described in the WO 03/026647, WO 03/027076, WO 03/026648 or WO 03/078413, and was determined by functional studies using CHO cells in which human cannabinoid CB1 receptors are stably expressed. Adenylyl cyclase was stimulated using forskolin and measured by quantifying the amount of accumulated cyclic AMP. Concomitant activation of CB1 receptors by CB1 receptor agonists (e.g. CP-55,940 or (R)-WIN-55,212-2) can attenuate the forskolin-induced accumulation of cAMP in a concentration-dependent manner. This CB1 receptor-mediated response can be antagonized by CB1 receptor antagonists such as the compounds used in the present invention.
The cannabinoid CB1 receptor antagonistic, agonistic or partial agonistic activity of compounds e.g. formula (V) of the invention can be also determined by functional studies using the human CB1 receptor cloned in Chinese hamster ovary (CHO) cells according to the following protocol. CHO cells were grown in a DMEM culture medium, supplemented with 10% heat-inactivated fetal calf serum. Medium was aspirated and replaced by DMEM, without fetal calf serum, but containing [^3H]-Arachidonic acid and incubated overnight in a cell culture stove (5% CO2/95% air; 37° C.; water-saturated atmosphere). During this period [^3H]-Arachidonic acid was incorporated in membrane phospholipids. On the test day, medium was aspirated and cells were washed three times using 0.5 ml phosphate-buffered saline, containing 0.2% bovine serum albumin. Stimulation of the CB1 receptor by WIN 55,212-2 led to activation of PLA2 followed by release of [^3H]-Arachidonic acid into the medium. This WIN 55,212-2-induced release was concentration-dependently antagonized by CB1 receptor antagonists.

Data set [5] has as its target T3, human cannabis CB1 receptor (Homo sapiens, UniProt P21554).
T3 construct: expressed in transfected cells; host or cells: Chinese hamster ovary (CHO) cells, stably transfected; membrane preparation
As to the kind of experiment: In vitro affinity for cannabinoid CB1 receptors, [3H]CP-55,940 radioligand, CHO cell membrane preparations. The format is binding. As to conditions: for Ki: Human cannabinoid-CB1 receptors, read-out: In vitro affinity pK1 value (converted). How it is done:
After incubation of a freshly prepared cell membrane preparation with the [3H]-ligand, with or without addition of compounds of the invention, separation of bound and free ligand was performed by filtration over glass fibre filters. Radioactivity on the filter was measured by liquid scintillation counting.

For data set [6] the following is noted: patients on atypical antipsychotics; cited from earlier work.
The subject of the next data set is DTH response. The conditions noted are these: mice, 0.781-50 mg/kg (i.p.) or 0.5 mg/kg (per os); cited from earlier work.
For data set [7], the system named is carragheenin-induced swelling. The conditions noted are these: mice; cited from earlier work.

T3 sequence (P21554 whole entry): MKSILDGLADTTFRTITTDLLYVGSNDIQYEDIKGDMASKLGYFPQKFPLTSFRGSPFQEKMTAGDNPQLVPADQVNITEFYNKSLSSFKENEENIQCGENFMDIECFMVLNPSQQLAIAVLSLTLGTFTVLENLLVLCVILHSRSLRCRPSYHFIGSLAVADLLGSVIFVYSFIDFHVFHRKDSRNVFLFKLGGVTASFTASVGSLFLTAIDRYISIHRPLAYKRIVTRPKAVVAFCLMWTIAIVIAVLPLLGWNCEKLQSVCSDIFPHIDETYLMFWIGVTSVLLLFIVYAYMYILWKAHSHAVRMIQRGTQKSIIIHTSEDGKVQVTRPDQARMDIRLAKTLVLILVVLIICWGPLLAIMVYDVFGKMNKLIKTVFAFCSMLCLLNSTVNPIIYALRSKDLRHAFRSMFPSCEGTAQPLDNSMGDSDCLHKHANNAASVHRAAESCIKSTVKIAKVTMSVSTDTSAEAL
T2 sequence (P21554 whole entry): as above

For `Cl.O=C(NN1CCCCC1)c1nc(-c2ccc(Cl)cc2)n(-c2ccc(Cl)cc2Cl)n1`, the melting point is 238 to 240 °C (dec.).

Consider `CCCCCCCCCC[C@@H]1C(=O)O[C@H]1C[C@H](CCCCCCC)OC(=O)CNC=O` [Panclicin D], for which the “inhibition of bacterial and fungal lipases” value in [1] is “profiles similar to those for porcine pancreatic lipase”. In the data set on plasma lipases, the pIC50 is 6.60. For the same compound, in data set [2], the “irreversibility of pancreatic lipase inhibition” value is listed as “irreversibly inhibit pancreatic lipase”; the “inhibitory activity, fold stronger than that of THL” value was 2 fold; the pIC50 is 6.18.

With `CCCCCCCCCCC[C@@H](C[C@@H]1OC(=O)[C@H]1CCCCCC)OC(=O)[C@H](CC(C)C)NC=O` [tetrahydrolipstatin, (2S,3S,5S)-5-((S)-2-4-methylvaleryloxy)-2-heyl-3-hydroxy-hexadecanoic acid lactone], in [3], the “fat excreted, average” value is 5.6 (+1-3.8) g/day.

With `Cl.O=C(NN1CCCC1)c1nc(-c2ccc(Cl)cc2)n(-c2ccc(Cl)cc2Cl)n1` [Example 2, 5-(4-Chlorophenyl)-1-(2,4-dichlorophenyl)-N-(pyrrolidin-1-yl)-1H-1,2,4-triazole-3-carboxamide hydrochloride], the melting point was 248 to 255 °C (dec.). The compound also had an antagonist dissociation constant (Kb) in data set [4] of 63.1 nM. Besides, the Ki in data set [5] was 251 nM.

Take `CC(C)(C)ONC(=O)c1nc(-c2ccc(Cl)cc2)n(-c2ccc(Cl)cc2Cl)n1`: the melting point lay in the range of 150 to 152 °C.

`CCCCCNC(=O)c1nc(-c2ccc(Cl)cc2Cl)n(-c2ccc(Cl)cc2)n1` [Example 11, 1-(4-Chlorophenyl)-5-(2,4-dichlorophenyl)-N-(n-pentyl)-1H-1,2,4-triazole-3-carboxamide]: the pKi in data set [5] is 6.30.

On to `O=C(NN1CCCCC1)c1nc(-c2cccnc2)n(-c2ccc(Cl)cc2Cl)n1` [Example 16, 1-(2,4-Dichlorophenyl)-N-(piperidin-1-yl)-5-(pyridin-3-yl)-1H-1,2,4-triazole-3-carboxamide], for which the melting point came to 219 °C.

For the compound `O=C1Cc2cc(CCN3CCN(c4nsc5ccccc45)CC3)c(Cl)cc2N1` [ziprasidone], the “weight change with long-term treatment” value in data set [6] was “smallest”.

Consider `CCCCCCCCCCCC[C@@H]1C(=O)O[C@H]1C[C@H](CCCCCCC)OC(=O)CNC=O` [Panclicin E], for which the “inhibition of bacterial and fungal lipases” value in [1] is “profiles similar to those for porcine pancreatic lipase”. The pIC50 in the data set on plasma lipases was 6.82. Besides, in [2], the “irreversibility of pancreatic lipase inhibition” value is “irreversibly inhibit pancreatic lipase”; the “inhibitory activity, fold stronger than that of THL” value is recorded as 2 fold; the negative logarithm of the IC50 (pIC50) is 6.05.

The compound `Cl.O=C(NN1CCOCC1)c1nc(-c2ccc(Cl)cc2Cl)n(-c2ccc(Cl)cc2)n1` displayed a melting point of 224 to 226 °C.

`CCCCCCC[C@@H](C[C@@H]1OC(=O)[C@H]1CCCCCCCC(C)C)OC(=O)[C@H](C)NC=O` [Panclicin A]: in data set [1], the “inhibition of bacterial and fungal lipases” value is reported as “profiles similar to those for porcine pancreatic lipase”. Besides, the negative-log IC50 (pIC50) in the data set with plasma lipases was 6.00. For the same compound, the “potency on plasma lipases compared with THL” value in the data set with plasma lipases (relative to THL) is recorded as “same potency as THL”. In [2], the “irreversibility of pancreatic lipase inhibition” value was “irreversibly inhibit pancreatic lipase” and the negative-log IC50 (pIC50) was 5.54.

For the compound `Cc1cc2c(s1)Nc1ccccc1N=C2N1CCN(C)CC1` [olanzapine], the “weight change with long-term treatment” value in data set [6] is reported as “largest weight gains”.

With `O=C(NN1CCCCC1)c1nc(-c2ccc(Cl)cc2Cl)n(-c2ccc(C(F)(F)F)cc2)n1` [Example 14, 5-(2,4-Dichlorophenyl)-N-(piperidin-1-yl)-1-(4-(trifluoromethyl)phenyl)-1H-1,2,4-triazole-3-carboxamide], the melting point fell in the range of 159 to 161 °C.

As for `CC[C@@H](C)[C@@H](O)[C@H](C)C(=O)[C@H](C)/C=C(\C)C[C@H](C)[C@@H]1OC(=O)[C@H]1C` [Ebelactone A], in the data set with DTH response, the “development of DTH response” value is recorded as “enhances the development of DTH response”.

As for `CCCCCNC(=O)c1nc(-c2ccc(Cl)cc2)n(-c2ccc(Cl)cc2Cl)n1` [Example 5, 5-(4-Chlorophenyl)-1-(2,4-dichlorophenyl)-N-(n-pentyl)-1H-1,2,4-triazole-3-carboxamide], the negative logarithm of the Ki (pKi) in data set [5] was 6.90.

On to `O=C(NC1CCCCC1)c1nc(-c2ccc(Cl)cc2)n(-c2ccc(Cl)cc2Cl)n1` [Example 3, 5-(4-Chlorophenyl)-N-cyclohexyl-1-(2,4-dichlorophenyl)-1H-1,2,4-triazole-3-carboxamide], for which the melting point lay in the range of 186 to 188 °C. The antagonist equilibrium constant (Kb) in [4] is 2 nM. Moreover, the Ki in [5] was 126 nM.

As to `O=C(NC1CCCCC1)c1nc(-c2ccc(Cl)cc2Cl)n(-c2ccc(Cl)cc2)n1` [Example 9, 1-(4-Chlorophenyl)-N-cyclohexyl-5-(2,4-dichlorophenyl)-1H-1,2,4-triazole-3-carboxamide], in data set [4], the antagonist equilibrium constant (Kb) was 6.31 nM. Also, the Ki in data set [5] was 39.8 nM.

As for `Cc1nc2n(c(=O)c1CCN1CCC(c3noc4cc(F)ccc34)CC1)CCCC2` [Risperidone], the “weight change with long-term treatment” value in [6] was “modest weight changes that are not dose related”.

For `O=C(NN1CCCCC1)c1nc(-c2ccccn2)n(-c2ccc(Cl)cc2Cl)n1` [Example 13, 1-(2,4-Dichlorophenyl)-5-(pyridin-2-yl)-N-(piperidin-1-yl)-1H-1,2,4-triazole-3-carboxamide], the melting point was in the range of 191 to 193 °C.

For the compound `CC[C@@H](C)[C@@H](O)[C@H](C)C(=O)[C@H](C)/C=C(\C)C[C@H](C)[C@@H]1OC(=O)[C@H]1CC` [Ebelactone B], the carragheenin-induced swelling result in [7] is reported as “reduces carragheenin-induced swelling”. In addition, in the data set on DTH response, the “development of DTH response” value is listed as “enhances the development of DTH response”.

For `CCCCCCC[C@@H](C[C@@H]1OC(=O)[C@H]1CCCCCCCC(C)C)OC(=O)CNC=O` [Panclicin C], in data set [1], the “inhibition of bacterial and fungal lipases” value was “profiles similar to those for porcine pancreatic lipase”. Further, the negative-log IC50 (pIC50) in the data set with plasma lipases was 6.54. For the same compound, in data set [2], the “irreversibility of pancreatic lipase inhibition” value is given as “irreversibly inhibit pancreatic lipase”; the “inhibitory activity, fold stronger than that of THL” value is 2 fold; the negative logarithm of the IC50 (pIC50) was 6.21.

Regarding `O=C(NN1CCOCC1)c1nc(-c2ccc(Cl)cc2)n(-c2ccc(Cl)cc2Cl)n1` [Example 6, 5-(4-Chlorophenyl)-1-(2,4-dichlorophenyl)-N-(morpholin-4-yl)-1H-1,2,4-triazole-3-carboxamide], the melting point was in the range of 184 to 186 °C.

For `OCCOCCN1CCN(C2=Nc3ccccc3Sc3ccccc32)CC1` [quetiapine], in data set [6], the “weight change with long-term treatment” value is “smallest”.

`Cl.O=C(NN1CCCC1)c1nc(-c2ccc(Cl)cc2Cl)n(-c2ccc(Cl)cc2)n1`: the melting point was 234 to 236 °C (dec.).
